Legend:
[1] = tested on: MV4-11 (human biphenotypic B myelomonocytic leukaemia); test: Antiproliferative MTT assay, 72 h exposure; type: cell-based
Method: (§1) The biological studies were performed in vitro using human cancer cell lines: MV4-11 (human biphenotypic B myelomonocytic leukaemia), A-549 (non-small cell lung cancer), MCF-7 (breast cancer), LoVo (colon cancer), LoVo/DX (colon cancer drug resistant), HepG2 (liver cancer) and BALB/3T3 (normal mice fibroblasts). These lines were obtained from American Type Culture Collection (Rockville, Maryland, U.S.A.). The cell line is being maintained in the Institute of Immunology and Experimental Therapy, Wroclaw, Poland. All cell lines were grown at 37°C with 5% CO2 humidified atmosphere and were cultured in cultured medium according to the method described before.
(§2) Prior to usage, the compounds were dissolved in DMSO or in mixture of 99.8% ethanol and DMSO (1:1) to the concentration of 25 or 50 mM, and subsequently diluted in culture medium to reach the required concentrations (ranging from 5 to 625 μM).
(§3) Twenty-four hours prior to the addition of tested compounds, the cells were plated in 96-well plates (Sarstedt, Germany) at a density of 1 × 10^4 cells per well in 100 μL of culture medium. The assay was performed after 72 h of exposure to varying concentrations of the tested agents. The in vitro cytotoxic effect of tested agents was examined using the MTT (for MV4-11 cells) or SRB assay which were described previously. Each compound in each concentration was tested in triplicate in a single experiment, which was repeated 3–5 times.
(§4) The results of antiproliferative activity were given as IC50 values. Using this parameter we calculated also the resistance indexes (RI) dividing the IC50 values of selected compounds estimated for drug resistant cell LOVO/DX line by respective values designated for drug sensitive LoVo line. According to Harker et al. three categories of the cells could be distinguished: (a) the cells are drug-sensitive—if the ratio approaches 0–2; (b) the cells are moderately drug-resistant—if the ratio ranges from 2 to 10; (c) the cells are markedly drug-resistant—if the ratio is higher than 10.

[2] = tested on: drug resistant LOVO/DX line vs drug sensitive LoVo line; test: Resistance index (RI): IC50 LOVO/DX divided by IC50 LoVo; type: cell-based, human; conditions: for Resistance index (RI): RI = IC50 resistant line / IC50 non-resistant line, 0<RI<2 able to overcome drug resistance, 2<RI<10 moderate ability, RI>10 no influence
Excerpt: as §4

[3] = tested on: LoVo/DX (colon cancer drug resistant); test: Antiproliferative SRB assay, 72 h exposure; type: cell-based, human; conditions: mean ± SD of 3–5 experiments, n.a. = no activity in concentration of 5, 25, 125, 625 μM
Method: as §1, §2, §3, §4

MCF-7 (breast cancer) = test: Antiproliferative SRB assay, 72 h exposure; type: cell-based, human; conditions: n.a. = no activity in concentration of 5, 25, 125, 625 μM
Method: as §1, §2, §3, §4

[4] = tested on: A-549 (non-small cell lung cancer); test: Antiproliferative SRB assay, 72 h exposure; type: cell-based, human; conditions: n.a. = no activity in concentration of 5, 25, 125, 625 μM
Method: as §1, §2, §3, §4

LoVo (colon cancer) = test: Antiproliferative SRB assay, 72 h exposure; type: cell-based, human; conditions: SRB, 72 h, mean ± SD of 3–5 experiments, n.a. = no activity in concentration of 5, 25, 125, 625 μM
Method: as §1, §2, §3, §4

HepG2 (liver cancer) = test: Antiproliferative SRB assay, 72 h exposure; type: cell-based, human; conditions: n.a. = no activity in concentration of 5, 25, 125, 625 μM
Method: as §1, §2, §3, §4

[5] = tested on: BALB/3T3 (normal mice fibroblasts); test: Antiproliferative SRB assay, 72 h exposure; type: cell-based; conditions: n.a. = no activity in concentration of 5, 25, 125, 625 μM
Method: as §1, §2, §3, §4

[6] = Homo sapiens, MV4-11, mean ± SD of 3–5 independent experiments
[7] = Homo sapiens, MCF7, mean ± SD of 3–5 experiments
[8] = Homo sapiens, A549, mean ± SD of 3–5 experiments
[9] = Homo sapiens, HepG2, mean ± SD of 3–5 experiments
[10] = Mus musculus, BALB/3T3, mean ± SD of 3–5 experiments
[11] = mean ± SD of 3–5 independent experiments

SMILES	IC50 [1, 6] [µM]	IC50 ([3]; Homo sapiens, LoVo/DX) [µM]	IC50 (MCF-7 (breast cancer); [7]) [µM]	IC50 [4, 8] [µM]	IC50 (LoVo (colon cancer); Homo sapiens, LoVo) [µM]	IC50 (HepG2 (liver cancer); [9]) [µM]	Resistance index (RI) [2]	IC50 [5, 10] [µM]	other results
C=CC(C)(CC/C=C(\C)CCC=C(C)C)CC(=O)O (stereo not drawn) [2 (FARA), (E)-3,7,11-trimethyl-3-vinyldodeca-6,10-dienoic acid]	153 ± 20.1	87 ± 14.4	162 ± 5.9	91 ± 11.5	99.2 ± 26	267 ± 15.5	0.88	230 ± 40.3	
CCCCCCCCCCCCCCCC(=O)OC[C@H](COP(=O)([O-])OCC[N+](C)(C)C)OC(=O)CCCCCCCCCCCCCCC [DPPC, reference compound]									IC50 (MCF-7 (breast cancer); mean ± SD of 3–5 experiments): 398 ± 194 µM; IC50 ([4]; mean ± SD of 3–5 experiments): 230 ± 31.3 µM; IC50 (LoVo (colon cancer)): 274 ± 17.1 µM; IC50 [1, 11]: 179 ± 30.2 µM; IC50 ([5]; mean ± SD of 3–5 experiments): 48.8 ± 2.1 µM
COc1cccc2c1C(=O)c1c(O)c3c(c(O)c1C2=O)C[C@@](O)(C(=O)CO)C[C@@H]3O[C@H]1C[C@H](N)[C@H](O)[C@H](C)O1 [Doxorubicin, doxorubicin, reference compound]							55.81		
C=CC(C)(CCC=C(C)C)CC(=O)O (stereo not drawn) [1 (GERA), 3,7-dimethyl-3-vinyloct-6-enoic acid]	256 ± 86.1	281 ± 13.6	310 ± 84	301 ± 66.9	329 ± 54.5	517 ± 98.3	0.85		
N.N.[Cl][Pt][Cl] [Cisplatin, cisplatin, reference compound]									IC50 [3]: 3.17 ± 0.2 µM; IC50 (MCF-7 (breast cancer); mean ± SD of 3–5 experiments): 8.1 ± 0.03 µM; IC50 ([4]; mean ± SD of 3–5 experiments): 8.6 ± 0.7 µM; IC50 (LoVo (colon cancer)): 2.56 ± 0.35 µM; IC50 (HepG2 (liver cancer); mean ± SD of 3–5 experiments): 2.38 ± 0.64 µM; IC50 [1, 11]: 1.3 ± 0.47 µM; IC50 ([5]; mean ± SD of 3–5 experiments): 4.2 ± 1.1 µM
C=CC(C)(CCCC(C)CCCC(C)CCCC(C)C)CC(=O)O (stereo not drawn) [4 (PHYTA), 3,7,11,15-Tetramethyl-3-vinylhexadecanoic acid]	39.3 ± 5.85								
CCCCCCCCCCCCCCCC(=O)O [Palmitic acid, reference compound]	161 ± 78.9	86.3 ± 21.3	123 ± 63.4	56.4 ± 1.6	42.1 ± 4.6	275 ± 85.2		60.4 ± 4	

Continued, in another order:

IC50 [1, 6] [µM]	IC50 ([3]; Homo sapiens, LoVo/DX) [µM]	IC50 (MCF-7 (breast cancer); [7]) [µM]	IC50 [4, 8] [µM]	IC50 (LoVo (colon cancer); Homo sapiens, LoVo) [µM]	IC50 (HepG2 (liver cancer); [9]) [µM]	SMILES	Resistance index (RI) [2]	IC50 [5, 10] [µM]	other results
259 ± 37						C=CC(C)(CCCC(C)CCCC(C)CCCC(C)C)CC(=O)OC[C@H](COP(=O)([O-])OCC[N+](C)(C)C)OC(=O)CCCCCCCCCCCCCCC (stereo partly drawn) [Compound 9d]			
50.3 ± 5.37	486 ± 17.4	98.7 ± 15.6	111 ± 12.9	251 ± 22.7	272 ± 24.7	C=CC(C)(CC/C=C(\C)CCC=C(C)C)CC(=O)O[C@H](COC(=O)CCCCCCCCCCCCCCC)COP(=O)([O-])OCC[N+](C)(C)C (stereo partly drawn) [Compound 7b, (2'R)-1’-palmitoyl-2’-[(3R,6E)-3,7,11-trimethyl-3-vinyldodeca-6,10-dienyl]-sn-glycero-3’-phosphocholine + (2'R)-1’-palmitoyl-2’-[(3S,6E)-3,7,11-trimethyl-3-vinyldodeca-6,10-dienyl]-sn-glycero-3’-phosphocholine]	1.16	518 ± 69.8	
50.1 ± 3.5	245 ± 19.7	209 ± 12.9	263 ± 19.7	230 ± 6.9	286.4 ± 1.3	C=CC(C)(CCC=C(C)C)CC(=O)OC[C@H](COP(=O)([O-])OCC[N+](C)(C)C)OC(=O)CC(C)(C=C)CCC=C(C)C (stereo partly drawn) [Compound 6a]		280 ± 8.2	
259 ± 32.5						C=CC(C)(CCCC(C)CCCC(C)CCCC(C)C)CC(=O)O[C@H](COC(=O)CCCCCCCCCCCCCCC)COP(=O)([O-])OCC[N+](C)(C)C (stereo partly drawn) [Compound 7d]			
50 ± 9	75.5 ± 8.1	102 ± 11.2	68.3 ± 1.5	61.5 ± 4.84	303 ± 77.6	CCC/C=C1/C(C)(C)CCCC1(C)CC(=O)OC[C@H](COP(=O)([O-])OCC[N+](C)(C)C)OC(=O)CCCCCCCCCCCCCCC (stereo partly drawn) [Compound 9c, (2’R)-1’-{2-[(3R,2"E)-2"-butylidene-1",3",3"-trimethyl]cyclohexyl}acetyl-2’-palmitoyl-sn-glycero-3’-phospocholine + (2’R)-1’-{2-[(3S,2"E)-2"-butylidene-1",3",3"-trimethyl]cyclohexyl}acetyl-2’-palmitoyl-sn-glycero-3’-phospocholine]		292 ± 41.5	
65.1 ± 12.2	111 ± 19.4	89.7 ± 11.3	75.7 ± 10.6	54.4 ± 3.2	134 ± 51	CCC/C=C1/C(C)(C)CCCC1(C)CC(=O)O[C@H](COC(=O)CCCCCCCCCCCCCCC)COP(=O)([O-])OCC[N+](C)(C)C (stereo partly drawn) [Compound 7c, (2’R)-1’-palmitoyl-2’-{2-[(3R,2"E)-2"-butylidene-1",3",3"-trimethyl]cyclohexyl}acetyl-sn-glycero-3’-phospocholine + (2’R)-1’-palmitoyl-2’-{2-[(3S,2"E)-2"-butylidene-1",3",3"-trimethyl]cyclohexyl}acetyl-sn-glycero-3’-phospocholine]	1.35	276 ± 25.7	able to overcome the barrier of P-gp-dependent resistance ([2]; judged from RI): exception
203 ± 15	382 ± 32.4	470 ± 52.9		284 ± 9.7		CCC/C=C1/C(C)(C)CCCC1(C)CC(=O)OC[C@@H](O)COP(=O)([O-])OCC[N+](C)(C)C (stereo partly drawn) [Compound 8c, (2’R)-1’-{2-[(3R,2"E)-2"-butylidene-1",3",3"-trimethyl]cyclohexyl}acetyl-2’-hydroxy-sn-glycero-3’-phospocholine + (2’R)-1’-{2-[(3S,2"E)-2"-butylidene-1",3",3"-trimethyl]cyclohexyl}acetyl-2’-hydroxy-sn-glycero-3’-phospocholine]	1.23		
42.4 ± 9.52						C=CC(C)(CCCC(C)CCCC(C)CCCC(C)C)CC(=O)OC[C@H](COP(=O)([O-])OCC[N+](C)(C)C)OC(=O)CC(C)(C=C)CCCC(C)CCCC(C)CCCC(C)C (stereo partly drawn) [Compound 6d]			
299 ± 39.3	537 ± 61.2	489 ± 57.7		269 ± 29.9		C=CC(C)(CC/C=C(\C)CCC=C(C)C)CC(=O)OC[C@H](COP(=O)([O-])OCC[N+](C)(C)C)OC(=O)CCCCCCCCCCCCCCC (stereo partly drawn) [Compound 9b]			
38.6 ± 11.1	56.9 ± 0.2	57.8 ± 2.6	52.3 ± 1.9	53.1 ± 3.6	56.7 ± 0.1	CCC/C=C1/C(C)(C)CCCC1(C)CC(=O)OC[C@H](COP(=O)([O-])OCC[N+](C)(C)C)OC(=O)CC1(C)CCCC(C)(C)/C1=C/CCC (stereo partly drawn) [Compound 6c, (2’R)-1’,2’-di{2-[(3R,2"E)-2"-butylidene-1",3",3"-trimethyl]cyclohexyl}acetyl-sn-glycero-3’-phospocholine + (2’R)-1’,2’-di{2-[(3S,2"E)-2"-butylidene-1",3",3"-trimethyl]cyclohexyl}acetyl-sn-glycero-3’-phospocholine]		57.3 ± 0.3	
269 ± 18	469 ± 3.2	372 ± 28.1		245 ± 68.5		C=CC(C)(CCC=C(C)C)CC(=O)OC[C@@H](O)COP(=O)([O-])OCC[N+](C)(C)C (stereo partly drawn) [Compound 8a]	1.61		
31.8 ± 1.62	52.7 ± 3.3	40 ± 1.9	38.3 ± 6.7	32.8 ± 5.1	59.2 ± 4.6	C=CC(C)(CCC=C(C)C)CC(=O)OC[C@H](COP(=O)([O-])OCC[N+](C)(C)C)OC(=O)CCCCCCCCCCCCCCC (stereo partly drawn) [Compound 9a]		57.6 ± 1	
47.4 ± 6.35						C=CC(C)(CCCC(C)CCCC(C)CCCC(C)C)CC(=O)OC[C@@H](O)COP(=O)([O-])OCC[N+](C)(C)C (stereo partly drawn) [Compound 8d]			

Source: publication PMC5308787, “Isoprenoid-phospholipid conjugates as potential therapeutic agents: Synthesis, characterization and antiproliferative studies” (PLoS ONE, 2017)
